Data published in patent US20150038500A1, “PHARMACEUTICAL COMPOSITION FOR PREVENTING AND TREATING OPHTHALMIC DISORDERS” (CATHOLIC UNIVERSITY INDUSTRY-ACADEMIC COOPERATION FOUNDATION, priority 2011, published 2015).
“Also recorded” adds a separate entry of the source.

Experiments:
white rat retina explant = experiment: Retinal nerve cell protection efficiency test on low oxygen stimulation (retinal explant culture); format: cell-based; details: hypoxic chamber 30 min, 1 μM compound, cultivated 3 days
Method: A white rat retina was cultivated overnight under explant culture conditions and then, damaged with low oxygen in a hypoxic chamber for 30 min., and cultivated for 3 days with or without being treated with compound 2 of 1 μM, and after the cultivation, the obtained retinal explants were stained and observed using a microscope.

[1] = tested on: human retinal pigment epithelial cell line ARPE-19; experiment: Protection efficiency test of retinal pigment epithelial cell (NaIO3-induced apoptosis, MTT assay); format: cell-based; details: 10 mM NaIO3 then 1 μM compound
Method: A human retinal pigment epithelial cell line ARPE-19 was treated with 10 mM of NaIO3, which is a retinal pigment epithelial cell apoptosis inducing agent, to induce apoptosis and then, it was treated with compound 2 of the invention, that is, (5-(1,1-dioxo-thiomorpholine-4-yl)methyl-2-phenyl-1H-indole-7-yl)-(1-methanesulfonyl-piperidine-4-yl)-amine (Enzo Life Sciences, Inc.) of 1 μM, and the compound treatment group and the non-treatment group were analyzed about their apoptosis degree using an MTT assay and survived cells were comparatively analyzed.

[2] = tested on: MNU (N-methyl-N-nitrosourea)-induced retinal degeneration models; experiment: Efficiency test in MNU-induced retinal degeneration animal model; format: in vivo, Sprague-Dawley rats
Method: The compounds of formula (1) were applied to retinal degeneration which is hard to cure or incurable to evaluate their effects. For this, 3 250-g Sprague-Dawley rats were prepared as a test animal, and injected with 75 mg/kg of N-methyl-N-nitrosourea (MNU) via an intraperitoneal route to induce retinal degeneration, thereby to produce retinal degeneration models. At 30 min. after the retinal degeneration induction, 10 μl of compound 1, that is, (tetrahydropyran-4-ylmethyl)-[2-phenyl-5-(1,1-dioxo-thiomorpholine-4-yl)methyl-1H-indole-7-yl]amine) (KDR Biotech. Co., Ltd., Seoul, Korea) of 50 μM and a physiological saline was injected into the vitreous body of the experimental group and the control group, respectively and then, the same medicines were injected via the same methods after 72 hours of the retinal degeneration induction. To evaluate the healing effects of retinal degeneration in the experimental group and the control group, on the 5th day of the retinal degeneration induction, the animals were anesthetized using 8% chloral hydrate (0.5 mg/kg) and subjected to electroretinogram (ERG) test (UTAS-2000; LKC Technologies, USA), in which scotopic response was recorded as a single flash response having a strength of 0.9 log (cd s) m^−2 or higher. In the meantime, for the histological evaluation of the experimental group and the control group, their eyeballs were extracted from the animals which completed the electroretinogram test on the 5th day of the retinal degeneration induction to produce eyecups, and then they were embedded in wax to produce 5-μm fragments, which were then stained with Hematoxylin & Eosin and observed using a microscope.

corneal wound models = experiment: Corneal wound healing effect test (corneal epithelium removal model); format: in vivo, New Zealand white rabbits
Method: It was examined whether the compounds of formula (1) show clinically stable corneal wound healing effects in ophthalmologic surgery such as LRP (laser reversal of presbyopia), LASIK (laser assisted in-situ keratomileusis) and LASEK (laser assisted sub-epithelial keratomileusis). For this, 16 New Zealand white rabbits of 2.0˜2.5 kg were prepared as test animals, anesthetized via intramuscular injection with 15 mg/kg of Zoletil and 5 mg/kg of Xylazine, and then their corneal epitheliums with diameters of 10-12 mm or so were removed using a surgery blade (No. 15) and a rotary epithelial scrubber to produce corneal wound models. At 30 min. after the above-mentioned surgery, two drops of compound 1, that is, (tetrahydropyran-4-ylmethyl)-[2-phenyl-5-(1,1-dioxo-thiomorpholine-4-yl)methyl-1H-indole-7-yl]amine) (KDR Biotech. Co., Ltd., Seoul, Korea) of 50 μM were applied to the experimental group and two drops of a physiological saline were applied to the control group and then, they wore contact lenses, and one drop of the same medicines was applied at 12-hour intervals. To measure a wound area in the experimental group and the control group, their corneal surfaces were stained with Fluorescin using Fluorescin (Haag-Streit International, Switzerland) strips and their diameters were measured using a microcaliper at 24-hour intervals. In the meantime, for the histological evaluation of the experimental group and the control group, they were anesthetized with 25% urethane on the first, second and third day to extract their eyeballs and then, their anterior eye parts including cornea were embedded in wax (Polyscience, USA) to produce 5-μm fragments, which were then stained with Hematoxylin & Eosin and observed using a microscope.

[3] = 10 μl of 50 μM intravitreal at 30 min and 72 hours, ERG on 5th day

Row | ERG response higher than the control group [2, 3] [%] | SMILES | outer nuclear layer (ONL) and inner nuclear layer (INL) of retinal explant after low oxygen damage (white rat retina explant) | survived cells (MTT assay) in comparison with control group [1] | electroretinogram a- and b-wave response compared to control group [2, 3] | retinal tissue fragments stained with Hematoxylin & Eosin (histology) ([2]; 10 μl of 50 μM intravitreal, 5th day, control showed severe retinal degeneration) | time until corneal wound healed (Fluorescin stain) (corneal wound models; 50 μM eye drops at 12-hour intervals, saline control healed on the 4th to 5th day) [days] | healing effect on damaged corneal area (fluorescin staining) in comparison with control group (corneal wound models; 50 μM eye drops, damaged areas right after wound induction and on the third day) | corneal epithelium in Hematoxylin & Eosin stained corneal tissue fragments (corneal wound models; 50 μM eye drops, third day of drug treatment, control epithelium remained damaged)
1 |  | CS(=O)(=O)N1CCC(Nc2cc(CN3CCS(=O)(=O)CC3)cc3cc(-c4ccccc4)[nH]c23)CC1 [compound 2, (5-(1,1-dioxo-thiomorpholine-4-yl)methyl-2-phenyl-1H-indole-7-yl)-(1-methanesulfonyl-piperidine-4-yl)-amine] | well preserved | statistically significant (* P<0.05; Student's t-test) survival results |  |  |  |  | 
2 | 200 | O=S1(=O)CCN(Cc2cc(NCC3CCOCC3)c3[nH]c(-c4ccccc4)cc3c2)CC1 [compound 1, (tetrahydropyran-4-ylmethyl)-[2-phenyl-5-(1,1-dioxo-thiomorpholine-4-yl)methyl-1H-indole-7-yl]amine] |  |  | increased response in both a- and b-waves | close to a normal tissue; also recorded: well-aligned retinal structure | ≤ 3 | statistically significant (*** P<0.001) healing effect | completely restored
